Patent US10080365B2, “Use of strobilurin type compounds for combating phytopathogenic fungi resistant to Qo inhibitors” (BASF SE, priority 2011, dated 2018)
Like-named read-outs stand apart in the source and are kept apart here.

What was measured:
[1] = tested on: Septoria tritici isolates containing the G143A in the cytochrome b gene; assay: Glass house Trial 3: control of leaf blotch on wheat caused by two Septoria tritici isolates containing G143A; type: in vivo; conditions: % diseased leaf area after about 28 days
Experimental: The spray solutions were prepared in several steps:
The stock solution was prepared as follows: 1.26 ml of a 1:1 mixture of cyclohexanone and dimethylsulfoxide was added to 8.4 mg of active ingredient. Next, 40.74 ml of a mixture of water, acetone (10%), the emulsifier Wettol (0.1%) and the wetting agent Silwet (0.05%) was added. This stock solution was then further diluted with the described solvent-emulsifier-water mixture to the desired concentrations.
Trial 3: Control of Leaf Blotch on Wheat Caused by Caused by Two Septoria tritici Isolates Containing the G143A in the Cytochrome b Gene for their Cytochrome Bc1 Complex
Wheat plants were grown in pots. These plants were sprayed to run-off with an aqueous suspension, containing the desired concentration of active ingredient. The next day, the treated plants were inoculated with an aqueous suspension of Septoria tritici. After inoculation, the trial plants were covered with a lid and immediately transferred to a chamber with a relative humidity of about 83 to 85% and 19.5 to 20° C. After 4 days the lid was removed. Altogether, the trial plants were cultivated for about 28 days in that greenhouse chamber. The extent of fungal attack on the leaves was then visually assessed as % diseased leaf area.

[2] = tested on: Septoria tritici (Qo-inhibitor-resistant, G143A mutant); assay: Microtiter test, Septoria tritici Qo-inhibitor-resistant G143A mutant (Use Example 1); type: cell-based; conditions: for IC50: read-out: Resistant Septoria tritici isolate (G143A mutation) (R-IC50); for Resistance factor RF = R-IC50/S-IC50: ratio of IC50 for G143A resistant isolate to IC50 for wild-type sensitive isolate
Experimental: (§1) The active substances were formulated separately as a stock solution in dimethyl sulfoxide (DMSO) at a concentration of 10 000 ppm.
(§2) Activity against the Septoria blotch pathogen caused by Septoria tritici in the microtiter test
(§3) Fungal strains used: • a) Septoria tritici (Qo-inhibitor sensitive, wild-type) • b) Septoria tritici (Qo-inhibitor-resistant, G143A mutant)
(§4) 100 ml 2% Malt extract in water at pH6.8 were inoculated with microspores from 2 week old cultures grown on 2% malt extract+2% agar in Petri dishes and incubated for 3 days on a rotary shaker at 24° C. und 150 rpm. The culture was harvested, glycerol was added (15% (v/v) and kept frozen at −20° C. in aliquots of 1 ml.
(§5) 1 ml stock suspension was thawed and suspended into 800 ml of 2% malt extract in water at pH 6.8. Compounds were diluted from stock solution in (dimethylsulfoxide) DMSO in 10 steps. The compound solutions were diluted 1/5 with sterile deionized water before use. 5 μl of the compound solutions were transferred into empty microplates. The plates were then filled with 195 μl of the microspore suspension of each strain.
(§6) The antifungal activity was determined by measuring the turbidity of a culture in 96-well microplates in the presence of test compounds. Fungal growth was measured by recording the optical density at 620 nm every 15 h for 150 h. The relative antifungal activity was calculated by comparison of the effect of the test compounds with the effect of a DMSO control and a standard fungicide.
(§7) IC50-values (concentration of test compound resulting in 50% inhibition of fungal growth) were calculated from the resulting dose-response for each compound and strain. The initial concentration of the test compounds and the 10 steps of dilution (1:4 each) allowed IC50-values from 0.001 to 100 μmol/l (μM) to be assessed.

[3] = tested on: Septoria tritici (Qo-inhibitor sensitive, wild-type); assay: Microtiter test, Septoria tritici Qo-inhibitor sensitive wild-type (Use Example 1); type: cell-based; conditions: turbidity at 620 nm, read-out: Sensitive Septoria tritici isolate (wild type) (S-IC50)
Experimental: as §1, §2, §3, §4, §5, §6, §7

[4] = Resistant Septoria tritici isolate 1 (G143A mutation), 12.5 ppm
[5] = Resistant Septoria tritici isolate 1 (G143A mutation), 25 ppm
[6] = Resistant Septoria tritici isolate 1 (G143A mutation), 50 ppm
[7] = Resistant Septoria tritici isolate 1 (G143A mutation), 100 ppm
[8] = Resistant Septoria tritici isolate 1 (G143A mutation), 200 ppm
[9] = Resistant Septoria tritici isolate 2 (G143A mutation), 12.5 ppm
[10] = Resistant Septoria tritici isolate 2 (G143A mutation), 25 ppm
[11] = Resistant Septoria tritici isolate 2 (G143A mutation), 50 ppm
[12] = Resistant Septoria tritici isolate 2 (G143A mutation), 100 ppm
[13] = Resistant Septoria tritici isolate 2 (G143A mutation), 200 ppm
[14] = microtiter test, Qo-inhibitor-resistant G143A mutant, turbidity at 620 nm

Structure (SMILES): CO/C=C(C(=O)OC)\C(C)=C/COc1ccn(-c2ccc(Cl)cc2)n1 [Compound I-7, (Z)-5-[1-(4-Chloro-phenyl)-1H-pyrazol-3-yloxy]-2-[1-methoxy-meth-(E)-yl-idene]-3-methyl-pent-3-enoic acid methyl ester]
- Disease level (%) [1, 4]: 100%
- Disease level (%) [1, 5]: 80%
- Disease level (%) [1, 6]: 20%
- Disease level (%) [1, 7]: 3%
- Disease level (%) [1, 8]: 3%
- Disease level (%) [1, 9]: 90%
- Disease level (%) [1, 10]: 15%
- Disease level (%) [1, 11]: 5%
- Disease level (%) [1, 12]: 1%
- Disease level (%) [1, 13]: 0%

Structure (SMILES): CNC(=O)C(=NOC)C(C)=CCOc1ccn(-c2ccc(F)cc2F)n1 [Compound I-11]
- Disease level (%) [1, 4]: 100%
- Disease level (%) [1, 5]: 90%
- Disease level (%) [1, 6]: 30%
- Disease level (%) [1, 7]: 3%
- Disease level (%) [1, 8]: 1%
- Disease level (%) [1, 9]: 70%
- Disease level (%) [1, 10]: 50%
- Disease level (%) [1, 11]: 30%
- Disease level (%) [1, 12]: 5%
- Disease level (%) [1, 13]: 1%

Structure (SMILES): CNC(=O)C(=NOC)C(C)=CCOc1ccn(-c2ccc(F)cc2Cl)n1 [Compound I-14]
- Disease level (%) [1, 4]: 100%
- Disease level (%) [1, 5]: 80%
- Disease level (%) [1, 6]: 70%
- Disease level (%) [1, 7]: 15%
- Disease level (%) [1, 8]: 3%
- Disease level (%) [1, 9]: 90%
- Disease level (%) [1, 10]: 70%
- Disease level (%) [1, 11]: 15%
- Disease level (%) [1, 12]: 5%
- Disease level (%) [1, 13]: 1%

Structure (SMILES): Cn1nnn(-c2ccccc2COc2ccn(-c3ccc(Cl)cc3)n2)c1=O [Compound I-211]
- IC50 [2, 14]: 1.1 µM
- Resistance factor RF = R-IC50/S-IC50 [2]: 2.6
- Disease level (%) [1, 4]: 80%
- Disease level (%) [1, 5]: 60%
- Disease level (%) [1, 6]: 10%
- Disease level (%) [1, 7]: 3%
- Disease level (%) [1, 8]: 1%
- Disease level (%) [1, 9]: 30%
- Disease level (%) [1, 10]: 10%
- Disease level (%) [1, 11]: 5%
- Disease level (%) [1, 12]: 1%
- Disease level (%) [1, 13]: 0%
- IC50 [3]: 0.44 µM

Structure (SMILES): CON=C(C(=O)OC)C(C)=CCOc1ncn(-c2ccc(Cl)c(Cl)c2)n1 [Compound I-291]
- IC50 [2, 14]: 18 µM
- Resistance factor RF = R-IC50/S-IC50 [2]: 18.0
- IC50 [3]: 1 µM

Structure (SMILES): CON=C(C(=O)OC)C(C)=CCOc1ncn(-c2ccc(Br)cc2)n1 [Compound I-292]
- IC50 [2, 14]: 33 µM
- Resistance factor RF = R-IC50/S-IC50 [2]: 4.2
- IC50 [3]: 7.9 µM

Structure (SMILES): CON=C(C(=O)OC)C(C)=CCOc1ncn(-c2cc(C(F)(F)F)ccc2Cl)n1 [Compound I-298]
- IC50 [2, 14]: 31 µM
- Resistance factor RF = R-IC50/S-IC50 [2]: 8.6
- IC50 [3]: 3.6 µM

Structure (SMILES): CON=C(C(=O)OC)C(C)=CCOc1ncn(-c2ccc(Cl)cc2Cl)n1 [Compound I-303]
- IC50 [2, 14]: 4.6 µM
- Resistance factor RF = R-IC50/S-IC50 [2]: 17.0
- IC50 [3]: 0.27 µM

Structure (SMILES): CCc1ccc(-n2cnc(OCC=C(C)C(=NOC)C(=O)OC)n2)cc1 [Compound I-304]
- IC50 [2, 14]: 9.1 µM
- Resistance factor RF = R-IC50/S-IC50 [2]: 17.2
- IC50 [3]: 0.53 µM

Structure (SMILES): CNC(=O)C(=NOC)C(C)=CCOc1ncn(-c2ccc(Cl)cc2Cl)n1 [Compound I-305]
- IC50 [2, 14]: 32 µM
- Resistance factor RF = R-IC50/S-IC50 [2]: 3.4
- IC50 [3]: 9.3 µM

Structure (SMILES): CON=C(C(=O)OC)C(C)=CCOc1ccn(-c2cc(Cl)ccc2C)n1 [Compound I-307]
- IC50 [2, 14]: 67 µM
- Resistance factor RF = R-IC50/S-IC50 [2]: 3.5
- IC50 [3]: 19 µM

Structure (SMILES): CON=C(C(=O)OC)C(C)=CCOc1ncn(-c2ccc(C)c(Cl)c2)n1 [Compound I-310]
- IC50 [2, 14]: 11 µM
- Resistance factor RF = R-IC50/S-IC50 [2]: 28.2
- IC50 [3]: 0.39 µM

Structure (SMILES): CON=C(C(=O)OC)C(C)=CCOc1ncn(-c2ccccc2C)n1 [Compound I-319]
- Resistance factor RF = R-IC50/S-IC50 [2]: 6.0
- IC50 [3]: 17 µM

Structure (SMILES): CON=C(C(=O)OC)C(C)=CCOc1ncn(-c2cc(C)ccc2C)n1 [Compound I-324]
- IC50 [2, 14]: 38 µM
- Resistance factor RF = R-IC50/S-IC50 [2]: 20.0
- IC50 [3]: 1.9 µM

Structure (SMILES): CON=C(C(=O)OC)C(C)=CCOc1ncn(-c2ccc(C(F)(F)F)cc2Cl)n1 [Compound I-326]
- IC50 [2, 14]: 18 µM
- Resistance factor RF = R-IC50/S-IC50 [2]: 15.0
- IC50 [3]: 1.2 µM

Structure (SMILES): CON=C(C(=O)OC)C(C)=CCOc1ncn(-c2cc(Cl)cc(Cl)c2)n1 [Compound I-331]
- IC50 [2, 14]: 25 µM
- Resistance factor RF = R-IC50/S-IC50 [2]: 13.9
- IC50 [3]: 1.8 µM

Structure (SMILES): CNC(=O)/C(=N/OC)c1ccccc1COc1cc(C)ccc1C [Dimoxystrobin, reference compound]
- IC50 [2, 14]: > 100 µM
- IC50 [3]: 7.1 µM

Structure (SMILES): CO/C=C(/C(=O)OC)c1ccccc1CO/N=C(C)/C=C/c1ccc(Cl)cc1 [Enestroburin, reference compound]
- IC50 [2, 14]: > 100 µM
- IC50 [3]: 4.5 µM

Structure (SMILES): CO/N=C(/C(=O)OC)c1ccccc1COc1ccccc1C [Kresoximmethyl]
- IC50 ([2]; Zymoseptoria tritici): > 100 µM
- IC50 ([3]; Zymoseptoria tritici): 0.76 µM

Structure (SMILES): CNC(=O)/C(=N/OC)c1ccccc1Oc1ccccc1 [Metominostrobin, reference compound]
- IC50 ([2]; Zymoseptoria tritici): > 100 µM
- IC50 ([3]; Zymoseptoria tritici): > 100 µM

Structure (SMILES): CNC(=O)/C(=N/OC)c1ccccc1CO/N=C(C)/C(=N/OC)C(/C)=N/OC [Orysastrobin, reference compound]
- IC50 [2, 14]: > 100 µM
- IC50 [3]: 27 µM

Structure (SMILES): CO/C=C(/C(=O)OC)c1ccccc1COc1cccc(C(F)(F)F)n1 [Picoxystrobin, reference compound]
- IC50 [2, 14]: > 100 µM
- IC50 [3]: 2.3 µM

Structure (SMILES): COC(=O)N(OC)c1ccccc1COc1c(C)c(-c2ccccc2)nn1C [Pyrametostrobin, reference compound]
- IC50 [2, 14]: > 100 µM
- IC50 [3]: > 100 µM

Structure (SMILES): CO/C=C(/C(=O)OC)c1ccccc1COc1cc(-c2ccc(Cl)cc2)nn1C [Pyraoxystrobin, reference compound]
- IC50 [2, 14]: > 100 µM
- IC50 [3]: 1.6 µM

Structure (SMILES): CON=C(C(=O)OC)c1ccccc1CON=C(C)c1cccc(C(F)(F)F)c1 [Trifloxystrobin, reference compound]
- IC50 ([2]; Zymoseptoria tritici): > 100 µM
- Disease level (%) [1, 4]: 100%
- Disease level (%) [1, 5]: 100%
- Disease level (%) [1, 6]: 90%
- Disease level (%) [1, 7]: 90%
- Disease level (%) [1, 8]: 90%
- Disease level (%) [1, 9]: 80%
- Disease level (%) [1, 10]: 70%
- Disease level (%) [1, 11]: 70%
- Disease level (%) [1, 12]: 70%
- Disease level (%) [1, 13]: 60%
- IC50 ([3]; Zymoseptoria tritici): 0.52 µM
